Six compounds from ChEMBL document CHEMBL1201862, “PubChem BioAssay data set” (2004) can be followed below.

Among the test systems are A549; CAKI-1; CCRF-CEM; COLO 205; EKVX; HCT-116; HL-60; IGROV-1; M14; NCI-H226; NCI-H460; OVCAR-4; OVCAR-5; SK-MEL-28; SK-MEL-5; SK-OV-3; SNB-19; SR; U-251; UACC-62.
Test in all cases: NCI anticancer screen, dose series, 48 h

Where a name gives a salt, the structure may show the parent alone.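 Exposure lasted 48 hours, with cells grown in 96-well plates and compounds tested at five concentrations. Here, GI50 denotes the concentration required for 50% inhibition of growth.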 The source made the active and inactive calls. Cut-off read from the data, not from the text of the source: active = GI50 up to about 1.1 µM and inactive = higher.

In the case of `OC1C2C=CCC1CCC2` (stereo not given), the GI50 in the experiment on A549, in the experiment with CAKI-1, in the experiment on CCRF-CEM, with COLO 205, in the experiment with EKVX and in the experiment with HCT-116 was > 100 µM (inactive) throughout. Moreover, the GI50 in the experiment with HL-60, with IGROV-1, in the experiment on M14, in the experiment on NCI-H226, in the experiment with NCI-H460 and with OVCAR-4 was > 100 µM (inactive) throughout. In addition, the GI50 in the experiment with OVCAR-5, in the experiment with SK-MEL-28, in the experiment with SK-MEL-5, in the experiment with SK-OV-3, with SNB-19 and in the experiment with SR was > 100 µM (inactive) throughout. In addition, the GI50 with U-251 and in the experiment on UACC-62 was > 100 µM (inactive) each time.
As for `CC1=C(N2CC2)C(=O)c2ccccc2C1=O`, the GI50 with A549 is 0.566 µM (active); in the experiment with CAKI-1 it was 0.556 µM (active); with CCRF-CEM, 1.19 µM (inactive); with COLO 205, 0.762 µM (active); in the experiment with EKVX, 0.136 µM (active); in the experiment on HCT-116, 1.37 µM (inactive). In addition, the GI50 with HL-60 was 2.52 µM (inactive); in the experiment with IGROV-1 it was 1.47 µM (inactive); in the experiment with M14 it was 1.22 µM (inactive); in the experiment on NCI-H226, 2.06 µM (inactive); with NCI-H460 it was 0.454 µM (active); with OVCAR-4, 0.918 µM (active). The GI50 with OVCAR-5 was 0.402 µM (active); in the experiment on SK-MEL-28 it was 1.85 µM (inactive); in the experiment on SK-MEL-5, 0.164 µM (active); in the experiment with SK-OV-3 it was 2.52 µM (inactive); in the experiment with SNB-19 it was 1.21 µM (inactive); in the experiment with SR, 0.117 µM (active). In addition, the GI50 in the experiment with U-251 is 0.895 µM (active); in the experiment on UACC-62, 0.811 µM (active).
For the compound `CCOC(=O)c1ccc2nc(-c3ccc(S(=O)(=O)F)cc3)cc(O)c2c1`, the GI50 was 53.3 µM (inactive) in the experiment on A549; 39.9 µM (inactive) in the experiment on CAKI-1; 30.7 µM (inactive) in the experiment with CCRF-CEM; 58.9 µM (inactive) with COLO 205; > 100 µM (inactive) in the experiment with EKVX; 23.1 µM (inactive) in the experiment on HCT-116. Moreover, the GI50 is 26.7 µM (inactive) in the experiment with HL-60; 48.8 µM (inactive) with IGROV-1; 40.9 µM (inactive) with M14; > 100 µM (inactive) in the experiment on NCI-H226; 34.4 µM (inactive) with NCI-H460; 65.3 µM (inactive) in the experiment with OVCAR-4. Further, the GI50 in the experiment with OVCAR-5 is > 100 µM (inactive); in the experiment on SK-MEL-28 it was 59.6 µM (inactive); in the experiment on SK-MEL-5 it was 50.2 µM (inactive); in the experiment with SK-OV-3, 38.9 µM (inactive); with SNB-19 it was > 100 µM (inactive); in the experiment on SR, 35.5 µM (inactive). In addition, the values for the GI50 in the experiment on U-251 and in the experiment on UACC-62 were 34.9 µM (inactive) and 24 µM (inactive), respectively.
Turning to `COC(=O)c1cc2/c(=N/O)c3ccccc3sc2o1`, the GI50 with A549, in the experiment on CAKI-1, with CCRF-CEM, in the experiment with COLO 205, with EKVX and with HCT-116 was > 100 µM (inactive) throughout. Besides, the GI50 was > 100 µM (inactive) in the experiment with HL-60; > 100 µM (inactive) in the experiment on IGROV-1; > 100 µM (inactive) in the experiment on M14; > 100 µM (inactive) in the experiment with NCI-H226; 61 µM (inactive) with NCI-H460; > 100 µM (inactive) in the experiment on OVCAR-4. For the same compound, the GI50 with OVCAR-5, with SK-MEL-28, with SK-MEL-5, in the experiment with SK-OV-3, in the experiment with SNB-19 and in the experiment with SR was > 100 µM (inactive) throughout. Besides, the GI50 with U-251 and with UACC-62 was > 100 µM (inactive) each time.
Regarding `Cc1ccccc1Nc1nc2c(s1)C(=O)c1ccccc1C2=O`, the GI50 in the experiment on A549 was 10.2 µM (inactive); with CAKI-1 it was 16.5 µM (inactive); in the experiment on CCRF-CEM it was 3.34 µM (inactive); in the experiment on COLO 205, 16.8 µM (inactive); in the experiment on EKVX, 13.3 µM (inactive); with HCT-116, 2.36 µM (inactive). Further, the GI50 in the experiment on HL-60 is 2.31 µM (inactive); with IGROV-1, 9.55 µM (inactive); with M14, 5.82 µM (inactive); in the experiment with NCI-H226, 14.4 µM (inactive); with NCI-H460, 8.67 µM (inactive); in the experiment with OVCAR-4, 2.02 µM (inactive). Besides, the GI50 with OVCAR-5 is 21.5 µM (inactive); in the experiment on SK-MEL-28, 9.86 µM (inactive); with SK-MEL-5 it was 2.92 µM (inactive); in the experiment on SK-OV-3, 21.8 µM (inactive); in the experiment on SNB-19 it was 7.21 µM (inactive); in the experiment on SR it was 3.27 µM (inactive). Moreover, the GI50 in the experiment with U-251 is 4.09 µM (inactive); in the experiment with UACC-62, 4.55 µM (inactive).
As to `N=C(N)c1ccc(-c2ccc(-c3ccc(C(=N)N)cc3)o2)cc1` [FURAMIDINE HYDROCHLORIDE], the GI50 with A549 is 34.2 µM (inactive); in the experiment with CAKI-1, 54.3 µM (inactive); in the experiment with CCRF-CEM, 24.9 µM (inactive); in the experiment on COLO 205 it was 12.4 µM (inactive); in the experiment with EKVX, 28.4 µM (inactive); in the experiment on HCT-116 it was 28.8 µM (inactive). The GI50 with HL-60 was 77.8 µM (inactive); with IGROV-1, 46.3 µM (inactive); in the experiment on M14, 25.1 µM (inactive); with NCI-H226 it was 69.2 µM (inactive); in the experiment on NCI-H460, 17.6 µM (inactive); in the experiment on OVCAR-4, > 100 µM (inactive). For the same compound, the GI50 in the experiment on OVCAR-5 was 18.9 µM (inactive); with SK-MEL-28, 20.6 µM (inactive); in the experiment on SK-MEL-5, 11.9 µM (inactive); with SK-OV-3, > 100 µM (inactive); with SNB-19, 51.9 µM (inactive); in the experiment on SR, 29.8 µM (inactive). Moreover, the figures for the GI50 with U-251 and in the experiment with UACC-62 were 16.6 µM (inactive) and 25.6 µM (inactive), respectively.
